According to PubChem BioAssay AID1918998 (Molecular Pharmacology Branch, DTP, NCI, 2023):

System: 521955-158-R2-J5-PDC complex spheroid growth
Assay: Anticancer human tumor 521955-158-R2-J5-PDC patient-derived pancreatic carcinoma cell line growth inhibition [AhR]
Conditions: for IC50: curve of first compound; for viability, T/C: stronger effect = lower value
Excerpt: Multicellular complex tumor spheroid response to aryl hydrocarbon receptor antagonists in combination with a variety of drugs and investigational agents in selected tumor cell lines
The current study was undertaken to assess response to aryl hydrocarbon receptor antagonists in combination with standard-of-care drugs and investigational agents in solid tumor complex spheroid models. Complex spheroids include a stromal component modeled by human endothelial cells (HUVEC) and fibroblasts modeled by human mesenchymal stem cells (MSCs). The concentration ranges selected for each drug and investigational agent were based upon clinically achievable concentrations if the clinical Cmax of the agent was known.
Compounds. The drugs and investigational agents: BAY 2416964 (NSC825713), GNF351 (NSC835774), CH-223191 (NSC835775), CPI-455 (NSC825282), aza-TdCyd (NSC777586), decitabine (NSC127716), belinostat (NSC758774), entinostat (NSC756642), pevonedistat (NSC761192), tazemetostat (NSC777109), talazoparib (NSC765396), olaparib (NSC753686), selinexor (NSC780203), nedisertib (M3814, NSC802822), bortezomib (NSC756655), venetoclax (NSC766270), doxorubicin (NSC123127), elimusertib (BAY189344, NSC800525), ceralasertib (AZD6738, NSC777638), TAK-243 (NSC785004), alisertib (NSC759677), etoposide (NSC141540), topotecan (NSC609699), eribulin (NSC707389), gemcitabine (NSC613327), carboplatin (NSC241240), cisplatin (NSC119875), and SN-38 (NSC673596) were obtained from the National Cancer Institute (NCI) Developmental Therapeutics Program Chemical Repository (32). The FDA-approved anticancer drug set is available from the Developmental Therapeutics Program at https://dtp.cancer.gov/organization/dscb/obtaining/available plates.htm. […] The stock solutions were prepared in dimethyl sulfoxide (DMSO, Sigma-Aldrich, St. Louis, MO, cat. D2650), except for the platinum compounds which were prepared in saline (Quality Biological, Gaithersburg, MD, cat. 114-055-101), at 800-fold the tested concentration and stored at -70 degrees C prior to their use. All drugs and investigational agents were tested over a range starting from a high concentration at or near the clinical Cmax and decreasing in half-log increments. If the clinical Cmax for an agent had not been determined, the highest concentration tested was 10 microM (Table 1).
Cell Culture. All cells were maintained in an incubator at 37 degrees C and 5% CO2 with 95% humidity. The PDC lines were cultured according to standard operating procedures established by the NCI PDMR (https://pdmr.cancer.gov). Briefly, all PDCs were thawed and cultured in Matrigel-coated flasks prepared with a working solution of 1X Ham's F-12 nutrient mix, without supplementation (Invitrogen, Waltham, MA, cat. 11765054), 100 U/mL penicillin-streptomycin (Invitrogen, cat. 15140122), and 2.5% Matrigel (Corning Inc., Corning, NY, cat. 354248) for the first three passages. All PDCs were cultured in complete DMEM/F-12 media containing advanced DMEM/F-12 (Invitrogen, cat. 12634028), 4.9% defined fetal bovine serum, heat inactivated (HyClone Laboratories Inc., Logan, UT, cat. SH30070.03HI), 389 ng/mL hydrocortisone (Sigma-Aldrich, cat. H4001), 9.7 ng/mL human EGF recombinant protein (Invitrogen, cat. PHG0313), 23.4 microg/mL adenine (Sigma-Aldrich, cat. A2786), 97.3 U/mL penicillin-streptomycin (Invitrogen, cat. 15140122), 1.9 mM L-glutamine (Invitrogen, cat. 25030081), and 9.7 microM Y-27632 dihydrochloride (Tocris Bioscience, Bristol, United Kingdom, cat. 1254). The PDCs were cultured in complete DMEM/F12 media without 10 microM Y-27632 dihydrochloride for at least two passages prior to the screen. The established cell lines NCI-H1341 and […] were cultured in DMEM/F-12, HEPES (Invitrogen, cat. 11330032), 5% defined fetal bovine serum (HyClone Laboratories Inc., cat. SH30070.03), ITS premix universal culture supplement [insulin (5 microg/mL), transferrin (5 microg/mL), and selenious acid (5 ng/mL)] […]

[1] = second compound 0.1 µM, first compound 0.00316 µM
[2] = second compound 0.1 µM, first compound 0.01 µM
[3] = second compound 0.1 µM, first compound 0.0316 µM
[4] = second compound 0.1 µM, first compound 0.1 µM
[5] = second compound 0.316 µM, first compound 0.00316 µM
[6] = second compound 0.316 µM, first compound 0.01 µM
[7] = second compound 0.316 µM, first compound 0.0316 µM
[8] = second compound 0.316 µM, first compound 0.1 µM
[9] = second compound 1 µM, first compound 0.00316 µM
[10] = second compound 1 µM, first compound 0.01 µM
[11] = second compound 1 µM, first compound 0.0316 µM
[12] = second compound 1 µM, first compound 0.1 µM
[13] = second compound 3.16 µM, first compound 0.00316 µM
[14] = second compound 3.16 µM, first compound 0.01 µM
[15] = second compound 3.16 µM, first compound 0.0316 µM
[16] = second compound 3.16 µM, first compound 0.1 µM
[17] = second compound 10 µM, first compound 0.00316 µM
[18] = second compound 10 µM, first compound 0.01 µM
[19] = second compound 10 µM, first compound 0.0316 µM
[20] = second compound 10 µM, first compound 0.1 µM
[21] = second compound 0.1 µM, first compound 0.316 µM
[22] = second compound 0.1 µM, first compound 1 µM
[23] = second compound 0.1 µM, first compound 3.16 µM
[24] = second compound 0.1 µM, first compound 10 µM
[25] = second compound 0.316 µM, first compound 0.316 µM
[26] = second compound 0.316 µM, first compound 1 µM
[27] = second compound 0.316 µM, first compound 3.16 µM
[28] = second compound 0.316 µM, first compound 10 µM
[29] = second compound 1 µM, first compound 0.316 µM
[30] = second compound 1 µM, first compound 1 µM
[31] = second compound 1 µM, first compound 3.16 µM
[32] = second compound 1 µM, first compound 10 µM
[33] = second compound 3.16 µM, first compound 0.316 µM
[34] = second compound 3.16 µM, first compound 1 µM
[35] = second compound 3.16 µM, first compound 3.16 µM
[36] = second compound 3.16 µM, first compound 10 µM
[37] = second compound 10 µM, first compound 0.316 µM
[38] = second compound 10 µM, first compound 1 µM
[39] = second compound 10 µM, first compound 3.16 µM
[40] = second compound 10 µM, first compound 10 µM
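Wherever viability, T/C is given: spheroids mix tumor cells with HUVEC endothelium and human MSC stroma; luminescence taken as viability surrogate after a week of drug exposure.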

| IC50 (second compound 0.1 µM) [nM] | IC50 (second compound 0.316 µM) [nM] | IC50 (second compound 1 µM) [nM] | IC50 (second compound 3.16 µM) [nM] | IC50 (second compound 10 µM) [nM] | SMILES | viability, T/C [3] [%] | viability, T/C [4] [%] | viability, T/C [7] [%] | viability, T/C [8] [%] | viability, T/C [11] [%] | viability, T/C [12] [%] | viability, T/C [15] [%] | viability, T/C [16] [%] | viability, T/C [19] [%] | viability, T/C [20] [%] | viability, T/C [21] [%] | viability, T/C [22] [%] | viability, T/C [25] [%] | viability, T/C [26] [%] | viability, T/C [29] [%] | also measured |
| --- | --- | --- | --- | --- | --- | --- | --- | --- | --- | --- | --- | --- | --- | --- | --- | --- | --- | --- | --- | --- | --- |
| 32.3 | 36.7 | 28 | 22 | 19.9 | CC[C@@]1(O)C(=O)OCc2c1cc1n(c2=O)Cc2cc3c(CN(C)C)c(O)ccc3nc2-1 + CC(CO)NC(=O)c1cc(-c2ccc(Cl)cc2)nn(-c2cnn(C)c2)c1=O | 51.8 | 16 | 57.4 | 13.3 | 46.1 | 20.1 | 38.3 | 19.2 | 35.3 | 17.9 |  |  |  |  |  | viability, T/C (second compound 0.1 µM, first compound 0.000316 µM): 99.8%; viability, T/C (second compound 0.1 µM, first compound 0.001 µM): 91.6%; viability, T/C [1]: 110%; viability, T/C [2]: 82.5%; viability, T/C (second compound 0.316 µM, first compound 0.000316 µM): 112%; viability, T/C (second compound 0.316 µM, first compound 0.001 µM): 109%; viability, T/C [5]: 89.8%; viability, T/C [6]: 82.5%; viability, T/C (second compound 1 µM, first compound 0.000316 µM): 93%; viability, T/C (second compound 1 µM, first compound 0.001 µM): 104%; viability, T/C [9]: 106%; viability, T/C [10]: 86.5%; viability, T/C (second compound 3.16 µM, first compound 0.000316 µM): 99.2%; viability, T/C (second compound 3.16 µM, first compound 0.001 µM): 102%; viability, T/C [13]: 91.8%; viability, T/C [14]: 75.4%; viability, T/C (second compound 10 µM, first compound 0.000316 µM): 76.5%; viability, T/C (second compound 10 µM, first compound 0.001 µM): 86.3%; viability, T/C [17]: 85.6%; viability, T/C [18]: 71.6% |
| 1060 | 1160 | 916 | 698 | 422 | COc1cc(C2c3cc4c(cc3C(OC3OC5COC(C)OC5C(O)C3O)C3COC(=O)C23)OCO4)cc(OC)c1O (stereo not given) + CC(CO)NC(=O)c1cc(-c2ccc(Cl)cc2)nn(-c2cnn(C)c2)c1=O | 85 | 78 | 92.3 | 102 | 98 | 98.3 | 93.5 | 87.5 | 76.3 | 71.4 | 91.8 | 51.4 | 87.5 | 53.4 | 95.7 | viability, T/C [23]: 29.3%; viability, T/C [24]: 17%; viability, T/C [27]: 25.5%; viability, T/C [28]: 16.6%; viability, T/C [30]: 46.1%; viability, T/C [31]: 24.5%; viability, T/C [32]: 20.6%; viability, T/C [33]: 91.9%; viability, T/C [34]: 31.4%; viability, T/C [35]: 23.6%; viability, T/C [36]: 22.8%; viability, T/C [37]: 55.3%; viability, T/C [38]: 33.3%; viability, T/C [39]: 20.4%; viability, T/C [40]: 14.2% |
| < 31.6 | 50.1 | 53.3 | < 31.6 | 38.7 | COc1cccc2c1C(=O)c1c(O)c3c(c(O)c1C2=O)CC(O)(C(=O)CO)CC3OC1CC(N)C(O)C(C)O1 (stereo not given) + CC(CO)NC(=O)c1cc(-c2ccc(Cl)cc2)nn(-c2cnn(C)c2)c1=O | 49.1 | 45.1 | 54.6 | 42.6 | 56.4 | 41.7 | 50.7 | 41.8 | 52.9 | 37 | 28 | 2.42 | 24.5 | 2.21 | 24.1 | viability, T/C [23]: 7.75%; viability, T/C [24]: 13.9%; viability, T/C [27]: 5.07%; viability, T/C [28]: 13.4%; viability, T/C [30]: 9.29%; viability, T/C [31]: 2.9%; viability, T/C [32]: 14.6%; viability, T/C [33]: 25.8%; viability, T/C [34]: 8.77%; viability, T/C [35]: 7.63%; viability, T/C [36]: 14%; viability, T/C [37]: 18.7%; viability, T/C [38]: 6.31%; viability, T/C [39]: 6.29%; viability, T/C [40]: 13.8% |
| 621 | 652 | > 1000 | 803 | > 1000 | Nc1ncn(C2CC(O)C(CO)O2)c(=O)n1 (stereo not given) + CC(CO)NC(=O)c1cc(-c2ccc(Cl)cc2)nn(-c2cnn(C)c2)c1=O | 106 | 70.9 | 107 | 70.8 | 120 | 78.6 | 87.3 | 87.1 | 74.1 | 80.2 | 67.9 | 40.1 | 68.1 | 41.2 | 67.8 | viability, T/C [1]: 113%; viability, T/C [2]: 105%; viability, T/C [5]: 97.2%; viability, T/C [6]: 107%; viability, T/C [9]: 111%; viability, T/C [10]: 85.7%; viability, T/C [30]: 50.8%; viability, T/C [13]: 98.2%; viability, T/C [14]: 95.2%; viability, T/C [33]: 64.7%; viability, T/C [34]: 46.4%; viability, T/C [17]: 83.3%; viability, T/C [18]: 87%; viability, T/C [37]: 62.4%; viability, T/C [38]: 51% |
